What was measured:
[1] = Drug uptake in human fibroblasts assessed as boron accumulation at 1 mM measured after 24 hrs per mg of cell pellet by ICP-MS analysis (reference value: 0.30 +/- 0.09 ng/mg); assay type: ADME, cell-based; conditions: fibroblast, 1000 µM
[2] = Drug uptake in human D54 cells assessed as boron accumulation at 1 mM measured after 2 hrs per mg of cell pellet by ICP-MS analysis (reference value: 0.15 +/- 0.19 ng/mg); assay type: ADME, cell-based; conditions: d54, 2 h, 1000 µM
[3] = Drug uptake in human D54 cells assessed as boron accumulation at 1 mM measured after 24 hrs per mg of cell pellet by ICP-MS analysis (reference value: 0.15 +/- 0.19 ng/mg); assay type: ADME, cell-based; conditions: d54, 24 h, 1000 µM
[4] = test system: Fibroblast; assay: Cytotoxicity against human fibroblasts assessed as reduction in cell viability at 0.01 to 3 mM measured after 24 hrs by MTT assay; assay type: toxicity, cell-based; conditions: 3000 µM, dose 0.01-3 mM
[5] = test system: Fibroblast; assay: Cytotoxicity against human fibroblasts assessed as reduction in cell viability at 0.01 to 3 mM measured after 72 hrs by MTT assay relative to control; assay type: toxicity, cell-based; conditions: 3000 µM, dose 0.01-3 mM
[6] = test system: D54 cell line; assay: Cytotoxicity against human D54 cells assessed as cell killing at 1 mM measured after 72 hrs by MTT assay; assay type: functional

Drug uptake [1] [ng/mg] | Drug uptake [2] [ng/mg] | Drug uptake [3] [ng/mg] | Compound | Activity [4] | Activity [5] [%] | Activity [6] [%]
0.85 | 3 | 6 | OB1CC[C@H]2OC(O)[C@H](O)[C@@H](O)[C@@H]2O1 (some centres not stated) | Non-Toxic | -10 | 15
– | – | – | N[C@@H](Cc1ccc(B(O)O)cc1)C(=O)O | – | -19 | –
